Experimental data reported in patent US10144737B2 (ETERNITY BIOSCIENCE INC., priority 2014, dated 2018).

Columns and labels:
TMD-8 cells = experiment: Cell proliferation assay (CellTiter-Glo), TMD-8 cells; assay type: cell-based; conditions: Homo sapiens, TMD8, 120 h, 5-day treatment, read-out: TMD8 cell growth (GI50 μM)
Experimental: Cell proliferation assay: TMD-8 and SU-DHL-1 cells were maintained at 37° C. in a humidified atmosphere with 5% CO2 in the recommended medium and serum concentrations. For cell proliferation assay, cells were seeded in 96-well pates at a density of 5,000 to 10,000 cells per well and cultured overnight at 37° C. in recommended medium supplemented with 5-10% FBS. On the next day, the test articles at various concentrations or vehicle control (0.5% DMSO) were added into cell culture. After 5-day treatment, the growth of cells was assayed by the CellTiter-Glo® Luminestceaent Cell Viability Assay (Promega). IC50 values were calculated using GraphPad Prism by plotting the logarithm of the concentration versus percent inhibition of cell growth as compared with the vehicle control.

Btk = target: T1, Btk (Homo sapiens, UniProt Q06187); experiment: Btk kinase assay (ADP-Glo); assay type: biochemical; conditions: ADP-Glo Btk kinase assay kit; ATP 1.2 μM; 60 minutes at room temperature
T1 construct: purchased Promega (Madison, Wis.)
T1 sequence (Q06187 whole entry): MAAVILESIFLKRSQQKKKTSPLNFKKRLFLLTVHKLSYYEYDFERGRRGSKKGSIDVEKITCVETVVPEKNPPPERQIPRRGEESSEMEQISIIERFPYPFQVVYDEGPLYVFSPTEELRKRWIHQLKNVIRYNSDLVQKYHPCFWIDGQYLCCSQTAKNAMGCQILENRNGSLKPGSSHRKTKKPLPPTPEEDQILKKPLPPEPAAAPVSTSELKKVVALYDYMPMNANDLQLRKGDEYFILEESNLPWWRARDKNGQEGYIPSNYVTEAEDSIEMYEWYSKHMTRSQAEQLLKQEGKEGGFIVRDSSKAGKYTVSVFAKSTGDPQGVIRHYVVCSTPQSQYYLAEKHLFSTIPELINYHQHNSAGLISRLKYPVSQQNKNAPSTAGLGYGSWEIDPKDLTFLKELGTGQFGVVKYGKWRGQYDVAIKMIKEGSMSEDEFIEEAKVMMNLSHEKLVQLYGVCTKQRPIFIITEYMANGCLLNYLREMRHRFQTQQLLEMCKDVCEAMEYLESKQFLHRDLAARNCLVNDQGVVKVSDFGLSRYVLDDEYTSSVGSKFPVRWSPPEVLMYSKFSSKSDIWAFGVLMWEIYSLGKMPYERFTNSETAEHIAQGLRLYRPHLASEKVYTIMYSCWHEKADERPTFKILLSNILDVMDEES
Experimental: Btk kinase assay—The Btk kinase assay was performed using a ADP-Glo Btk kinase assay kit purchased from Promega (Madison, Wis.). The assay was conducted according to the protocols provided in the assay kit. In brief, the enzyme reaction was carried out in the kinase reaction buffer containing Btk (2 ng/μl), ATP (1.2 μM), poly GT peptide (0.3 μM), DTT (40 nM), MnCl2 (1.4 mM), and 1 xkinase buffer (included in the kit) in the presence or absence of the tested articles at various concentrations in 384-well plate at room temperature (22±1° C.) for 60 minutes. The final reaction volume for each reaction was 10 μl. Then, 4 μl of ADP-Glo reagent (included in the kit) was added into the reaction and the plate was further incubated for another 40 minutes to terminate the reaction and deplete the remaining ATP. Finally, 10 μl of the kinase detection reagent was added into each reaction to simultaneously convert ADP to ATP and allow the newly synthesized ATP to be measured by a plate-reading luminometer (Victor X5 2030 multilabel reader, PerkinElmer). IC50 value was calculated using appropriate programs in GraphPad Prism by plotting the logarithm of the concentration versus percent inhibition as compared with a vehicle (DMSO) control.

| Structure (SMILES) | GI50 (TMD-8 cells) | IC50 (Btk) |
| --- | --- | --- |
| CN(C)C/C=C/C(=O)N1CC[C@@H](Nc2ncnc3[nH]c(C#Cc4cccc(Cl)c4)cc23)C1 [Example 58, (R,E)-1-(3-((6-((3-chlorophenyl)ethynyl)-7H-pyrrolo[2,3-d]pyrimidin-4-yl)amino)pyrrolidin-1-yl)-4-(dimethylamino)but-2-en-1-one] | 0.171 µM | 0.0004 µM |
| C=CC(=O)N1CCC(N(C)c2ncnc3[nH]c(C#CCOc4ccccc4)cc23)C1 (stereo not shown) [Example 38, 1-(3-(methyl(6-(3-phenoxyprop-1-yn-1-yl)-7H-pyrrolo[2,3-d]pyrimidin-4-yl)amino)pyrrolidin-1-yl)prop-2-en-1-one] | 0.209 µM | 0.384 µM |
| C=CC(=O)N1CCC(Nc2ncnc3[nH]c(C#CCOc4cccc(Cl)c4)nc23)C1 (stereo not shown) [Example 13, 1-(3-((8-(3-(3-chlorophenoxy)prop-1-yn-1-yl)-9H-purin-6-yl)amino)pyrrolidin-1-yl)prop-2-en-1-one] | 0.019 µM | 0.0019 µM |
| C=CC(=O)N1CC[C@@H](Nc2ncnc3[nH]c(C#Cc4ccc(Cl)cc4)cc23)C1 [Example 63, (R)-1-(3-((6-((4-chlorophenyl)ethynyl)-7H-pyrrolo[2,3-d]pyrimidin-4-yl)amino)pyrrolidin-1-yl)prop-2-en-1-one] | 0.0027 µM | 0.0048 µM |
| C=CC(=O)N1CC[C@@H](Nc2ncnc3[nH]c(C#Cc4ccc5sccc5c4)cc23)C1 [Example 73, (R)-1-(3-((6-(benzo[b]thiophen-5-ylethynyl)-7H-pyrrolo[2,3-d]pyrimidin-4-yl)amino)pyrrolidin-1-yl)prop-2-en-1-one] | 0.001 µM | 0.0001 µM |
| C=CC(=O)N1CC[C@@H](Nc2ncnc3[nH]c(C#CCOc4c(F)cccc4OC)cc23)C1 [Example 88, (R)-1-(3-((6-(3-(2-fluoro-6-methoxyphenoxy)prop-1-yn-1-yl)-7H-pyrrolo[2,3-d]pyrimidin-4-yl)amino)pyrrolidin-1-yl)prop-2-en-1-one] | 0.02 µM | 0.018 µM |
| C=CC(=O)N1CC[C@@H](Nc2ncnc3[nH]c(C#CCOc4cccc(F)c4F)cc23)C1 [Example 91, (R)-1-(3-((6-(3-(2,3-difluorophenoxy)prop-1-yn-1-yl)-7H-pyrrolo[2,3-d]pyrimidin-4-yl)amino)pyrrolidin-1-yl)prop-2-en-1-one] | 0.0015 µM | 0.008 µM |
| CN(C)C/C=C/C(=O)N1CC[C@@H](Nc2ncnc3[nH]c(C#Cc4ccccc4F)cc23)C1 [Example 52, (R,E)-4-(dimethylamino)-1-(3-((6-((2-fluorophenyl)ethynyl)-7H-pyrrolo[2,3-d]pyrimidin-4-yl)amino)pyrrolidin-1-yl)but-2-en-1-one] | 0.187 µM | 0.006 µM |
| C=CC(=O)N1CCC(Nc2ncnc3[nH]c(C#CCOc4ccccc4OC)nc23)C1 (stereo not shown) [Example 25, 1-(3-((8-(3-(2-methoxyphenoxy)prop-1-yn-1-yl)-9H-purin-6-yl)amino)pyrrolidin-1-yl)prop-2-en-1-one] | 0.006 µM | 0.001 µM |
| C=CC(=O)N1CC[C@@H](Nc2ncnc3[nH]c(C#Cc4ccccc4Cl)cc23)C1 [Example 55, (R)-1-(3-((6-((2-chlorophenyl)ethynyl)-7H-pyrrolo[2,3-d]pyrimidin-4-yl)amino)pyrrolidin-1-yl)prop-2-en-1-one] | 0.195 µM | 0.174 µM |
| C=CC(=O)N1CC[C@@H](Nc2ncnc3[nH]c(C#Cc4cccc(Cl)c4)cc23)C1 [Example 57, (R)-1-(3-((6-((3-chlorophenyl)ethynyl)-7H-pyrrolo[2,3-d]pyrimidin-4-yl)amino)pyrrolidin-1-yl)prop-2-en-1-one] | 0.01 µM | 0.024 µM |
| C=CC(=O)N1CC[C@@H](Nc2ncnc3[nH]c(C#Cc4cnn(C)c4)cc23)C1 [Example 80, (R)-1-(3-((6-((1-methyl-1H-pyrazol-4-yl)ethynyl)-7H-pyrrolo[2,3-d]pyrimidin-4-yl)amino)pyrrolidin-1-yl)prop-2-en-1-one] | 0.51 µM | 0.255 µM |
| C=CC(=O)N1CC[C@@H](Nc2ncnc3[nH]c(C#CCOc4ccccc4C(F)(F)F)cc23)C1 [Example 87, (R)-1-(3-((6-(3-(2-(trifluoromethyl)phenoxy)prop-1-yn-1-yl)-7H-pyrrolo[2,3-d]pyrimidin-4-yl)amino)pyrrolidin-1-yl)prop-2-en-1-one] | 0.002 µM | 0.043 µM |
| O=C(/C=C/c1cccs1)N1CCC(Nc2ncnc3[nH]c(C#CCOc4ccccc4)cc23)C1 (stereo not shown) [Example 37, (E)-1-(3-((6-(3-phenoxyprop-1-yn-1-yl)-7H-pyrrolo[2,3-d]pyrimidin-4-yl)amino)pyrrolidin-1-yl)-3-(thiophen-2-yl)prop-2-en-1-one] | – | 1.18 µM |
| C=CC(=O)N1CCC(Nc2ncnc3[nH]c(C#CCOc4cccc(OC)c4)nc23)C1 (stereo not shown) [Example 26, 1-(3-((8-(3-(3-methoxyphenoxy)prop-1-yn-1-yl)-9H-purin-6-yl)amino)pyrrolidin-1-yl)prop-2-en-1-one] | 0.247 µM | 0.0065 µM |
| C=CC(=O)N1CCC(Nc2ncnc3[nH]c(C#CCOc4cccc(F)c4)nc23)C1 (stereo not shown) [Example 15, 1-(3-((8-(3-(3-fluorophenoxy)prop-1-yn-1-yl)-9H-purin-6-yl)amino)pyrrolidin-1-yl)prop-2-en-1-one] | 0.019 µM | 0.0148 µM |
| C#CC(=O)N1CC[C@@H](Nc2ncnc3[nH]c(C#CCOc4ccccc4F)cc23)C1 [Example 85, (R)-1-(3-((6-(3-(2-fluorophenoxy)prop-1-yn-1-yl)-7H-pyrrolo[2,3-d]pyrimidin-4-yl)amino)pyrrolidin-1-yl)prop-2-yn-1-one] | 0.091 µM | 0.007 µM |
| C=CC(=O)N1CC[C@@H](Nc2ncnc3[nH]c(C#CCn4ncc5ccccc54)cc23)C1 [Example 86, (R)-1-(3-((6-(3-(1H-indazol-1-yl)prop-1-yn-1-yl)-7H-pyrrolo[2,3-d]pyrimidin-4-yl)amino)pyrrolidin-1-yl)prop-2-en-1-one] | 0.018 µM | 0.018 µM |
| CN(C)C/C=C/C(=O)N1CC[C@@H](Nc2ncnc3[nH]c(C#Cc4ccccc4)cc23)C1 [Example 54, (R,E)-4-(dimethylamino)-1-(3-((6-(phenylethynyl)-7H-pyrrolo[2,3-d]pyrimidin-4-yl)amino)pyrrolidin-1-yl)but-2-en-1-one] | 0.121 µM | 0.0035 µM |
| C=CC(=O)N1CCC(Nc2ncnc3[nH]c(C#CCOc4ccc(F)cc4)nc23)C1 (stereo not shown) [Example 20, 1-(3-((8-(3-(4-fluorophenoxy)prop-1-yn-1-yl)-9H-purin-6-yl)amino)pyrrolidin-1-yl)prop-2-en-1-one] | 0.051 µM | 0.0005 µM |
| CN(C)C/C=C/C(=O)N1CC[C@@H](Nc2ncnc3[nH]c(C#CCOc4ccccc4Cl)cc23)C1 [Example 44, (R,E)-1-(3-((6-(3-(2-chlorophenoxy)prop-1-yn-1-yl)-7H-pyrrolo[2,3-d]pyrimidin-4-yl)amino)pyrrolidin-1-yl)-4-(dimethylamino)but-2-en-1-one] | 0.012 µM | 0.00011 µM |
| CN(C)C/C=C/C(=O)N1CC[C@@H](Nc2ncnc3[nH]c(C#Cc4ccccc4Cl)cc23)C1 [Example 56, (R,E)-1-(3-((6-((2-chlorophenyl)ethynyl)-7H-pyrrolo[2,3-d]pyrimidin-4-yl)amino)pyrrolidin-1-yl)-4-(dimethylamino)but-2-en-1-one] | 1 µM | 0.323 µM |
